Consider two compounds from publication PMC6315362, “Cytotoxic Potential of the Novel Horseshoe Crab Peptide Polyphemusin III” (Marine Drugs, 2018).

Where no end group is shown, it is not given here.

One assay deals with HL-60 cells. The assay can be described thus: Annexin V-FITC/propidium iodide double staining and flow cytometry. It is filed as cell-based, human. To be noted: HL-60, 4 h of incubation, 50 μM Z-VAD-FMK. From the text:
To further investigate the effect of PM III on human cells, we performed annexin V-FITC/propidium iodide double staining with subsequent flow cytometric analysis. Annexin V-FITC binds to phosphatidylserine, which is exposed on the outer leaflet of the cellular plasma membrane at the initial stages of apoptosis, whereas propidium iodide (PI) preferentially stains nuclei of dead cells. Therefore, a combination of annexin V-FITC and PI assays allows differentiation between early apoptotic and late apoptotic/necrotic cell populations. PM III was used at two final concentrations of 2.5 and 5 μM. In order to elucidate the predominant mechanism of the PM III action, we applied a widely used caspase inhibitor, Z-VAD-FMK [23].
Cell death analysis with fluorescein isothiocyanate conjugated annexin V (annexin V-FITC)/propidium iodide double staining and dead cells counting with flow cytometry were performed 4 h after addition of polyphemusin III up to a final concentration of 2.5 or 5 μM. The Annexin V-FITC Apoptosis Detection Kit (BD Biosciences, Franklin Lakes, NJ, USA) was used according to the manufacturer’s protocol on a NovoCyte flow cytometer (ACEA Biosciences, San Diego, CA, USA). Each experiment was performed in triplicate. The apoptosis inducer camptothecin (Sigma-Aldrich, St. Louis, MO, USA) and the general caspase inhibitor, Z-VAD-FMK (BD Biosciences, Franklin Lakes, NJ, USA), were used. All flow cytometry experiments were performed twice.

In assay [1] the test system is Gram-negative and Gram-positive bacteria. To be noted: synthetic PM I against Gram-negative and Gram-positive bacteria; cited from earlier work. The method, then: Our experimental data for the obtained recombinant PM I are in line with those obtained earlier for synthetic PM I against Gram-negative and Gram-positive bacteria (with reported MICs not exceeding 1 μM).

Take `CC[C@@]1(O)C(=O)OCc2c1cc1n(c2=O)Cc2cc3ccccc3nc2-1` [campthotecin, camptothecin]: the “influence of the caspase inhibitor Z-VAD-FMK on the effect of the substance (annexin V-FITC/PI staining)” value in the assay with HL-60 cells is “totally abrogated”. Regarding “synthetic PM I: synthetic polyphemusin I of earlier reports (RRWCFRVCYRGFCYRKCR; ends and bridges not checked; cysteine pairing not given here; UniProt P14215 1-18, looked up)”, the MICs in assay [1] was not above 1 µM.
